In patent US7220775B2, “Compound useful for the treatment of neuropathic pain” (H. Lundbeck A/S, priority 2002, dated 2007):

Tested on: neuropathic rats (chronic constriction nerve injury)
Assay: Chronic constriction nerve injury model of neuropathic pain: mechanical allodynia (Von Frey filaments)
Format: in vivo, rat
Details: for effect on withdrawal threshold of the nerve-injured hind paw (Von Frey) vs vehicle / withdrawal threshold of the nerve-injured paw to Von Frey filament challenges: 30 mg/kg i.p.; for withdrawal threshold of the nerve-injured paw to Von Frey filament challenges: Day 12 PO
Experimental: The aim of this study was to assess the potential analgesic effects of Example 92 following intraperitoneal administration at the doses of 3, 10 and 30 mg/kg, respectively, in an animal model of neuropathic pain. A peripheral mononeuropathy was induced in the right hind limb of rats following a chronic constriction nerve injury (Bennett and Xie, 1988), and the development of mechanical allodynia and thermal hyperalgesia was monitored using established behavioral tests (Attal, N., et al., 1990; Hargreaves, K., et al., 1988).
Male Sprague-Dawley rats within the weight range of 200-225 g, and approximate age 7-9 weeks, were allowed to acclimate for a minimum of 6 days prior to the start of the behavioral testing.
All rats underwent a chronic constriction nerve injury, and of these, those that successfully developed allodynia and hyperalgesia were allocated to treatment groups.
There were 5 separate treatment groups (with a minimum of 10 rats per group). The treatment groups were as follows: • Group C received Morphine at 10 mg/kg (n=10) • Group D received Vehicle for Example 92* at 1 ml/kg (n=10) (* 100% DMSO) • Group E received Example 92 at 30 mg/kg (n=10) • Group F received Example 92 at 3 mg/kg (n=10) • Group G received Example 92 at 10 mg/kg (n=10)
The dose volume for all treatments was 1 ml/kg. Each rat received a single i.p. dose of the test substance, reference substance or vehicle on Day 12 PO. Test substance and vehicle dosing solutions were encoded (C-G) so that the observers were unaware of the identity of the treatment groups.
The behavioral tests (Von Frey filament and Thermal Plantar Tests—see below) were performed on all rats on 3 separate days prior to […], to establish baseline values. The pre-surgery baseline values were calculated as the mean of the last 2 days testing (the data from the first day of testing were not included as this was classed as part of the acclimating period). The sequence of tests was always mechanical allodynia (Von Frey Test) followed by thermal hyperalgesia (Thermal Plantar Test), with a minimum 5 min period allowed between the 2 tests.
Each animal was placed in a wire mesh cage and a series of Von Frey filaments (ranging from filament handle number 3.61 to 6.10) applied to the plantar surface of the hind paw, from below. The filaments were applied in ascending order (starting with the weakest force) and the withdrawal threshold for both the ipsilateral and contralateral hind paws was evaluated. Each filament was indented on the plantar surface of the foot to the point where it just started to bend, and this was repeated approximately 8-10 times per filament at a frequency of approximately 1 Hz. The withdrawal threshold was defined as the lowest force of two or more consecutive Von Frey filaments to elicit a reflex withdrawal response.
The animals were surgically prepared over 5 days. Each rat was anaesthetized with sodium pentobarbitone (60 mg/ml; 0.6 ml/kg dose, intraperitonealy; batch number 00230; expiry date 22 May 3) and then supplemented as necessary with isoflurane (1-3% in oxygen). The surface around the incision site was shaved and then sterilized with surgical spirit. Under aseptic conditions the right sciatic nerve was exposed by blunt dissection at mid-thigh level and approximately 1 cm of nerve was freed of adhering connective tissue. Four chromic cat gut (4.0) ligatures, spaced at approximately 1 mm inzervals, were then tied so as to barely constrict the nerve (as viewed under 40× magnification) to induce a peripheral mononeuropathy in the right hind limb. The overlying muscle and skin were then closed in layers using suture material, and the anesthesia discontinued. On recovery from anesthesia, the rats were re-housed with their cage mates on soft padded bedding overnight (to reduce the risk of infection) and subsequently on sawdust bedding following full recovery. The animals were allowed 4 full days to recover before the behavioral testing was recommenced. […]

Compound: O=C1C(=Nc2cccc(C(F)(F)F)c2)c2ccccc2N1c1ccccc1 [Example 92, 1-PHENYL-3-[[3-(TRIFLUOROMETHYL)PHENYL]IMINO]-1,3-DIHYDRO-2H-INDOL-2-ONE]
- effect on withdrawal threshold of the nerve-injured hind paw (Von Frey) vs vehicle (30 min PD): significantly increased
- withdrawal threshold of the nerve-injured paw to Von Frey filament challenges (30 min PD, vehicle 4.82±2.77 g, P≦0.05): 25.98 ± 8.25 g
- effect on withdrawal threshold of the nerve-injured hind paw (Von Frey) vs vehicle (90 min PD): not found to be significant
- withdrawal threshold of the nerve-injured paw to Von Frey filament challenges (90 min PD, vehicle 2.43±1.48 g): 11.73 ± 6.43 g
- responses of the uninjured (contralateral) left paw (Von Frey) vs vehicle (3, 10, 30 mg/kg i.p., any time point): No significant changes
- effect on withdrawal threshold of the nerve-injured paw (Von Frey) vs vehicle (3 or 10 mg/kg i.p., any time point): no significant effect
